Results as given in patent US20240409585A1, “MACROCYCLIC IMMUNOMODULATORS” (priority 2021, published 2024).
Numbered stars: 1 amine (or outer) side, 2 acyl side, 3 side chain; on linkers, the order of the positions; unused ones are H or OH. Bridge positions count the residues as written; N and C are the ends. Square brackets hold non-standard residues; d marks the D form. Peptide text beside a SMILES is read from it. * marks the point of attachment. ξ: configuration not given here. X19 = Cc1cccc(-c2ccc(C[C@H](N[*:1])C(=O)[*:2])cc2)c1; Ala(morpholin-4-yl) = N[C@@H](CN1CCOCC1)C(=O)O; Phe(4-COOH) = N[C@@H](Cc1ccc(C(=O)O)cc1)C(=O)O; Bip = N[C@@H](Cc1ccc(-c2ccccc2)cc1)C(=O)O; Phe(3-Cl) = N[C@@H](Cc1cccc(Cl)c1)C(=O)O; Ala(2-furyl) = N[C@@H](Cc1ccco1)C(=O)O; Phe(3-Me) = Cc1cccc(C[C@H](N)C(=O)O)c1; 2Nal = N[C@@H](Cc1ccc2ccccc2c1)C(=O)O; Val(3-OH) = CC(C)(O)[C@H](N)C(=O)O; X49 = O=C(C(N[*:1])C1CCOCC1)[*:2]; 4Pal = N[C@@H](Cc1ccncc1)C(=O)O; Cha = N[C@@H](CC1CCCCC1)C(=O)O; Cit = NC(=O)NCCC[C@H](N)C(=O)O; Ile(3ξ) = CCC(C)[C@H](N)C(=O)O; Thr(3ξ) = CC(O)[C@H](N)C(=O)O; dOrn = NCCC[C@@H](N)C(=O)O; Carboxymethyl = O=C(O)C*; NMeA = CN[C@@H](C)C(=O)O; Orn = NCCC[C@H](N)C(=O)O; Pra = C#CC[C@H](N)C(=O)O; Dab = NCC[C@H](N)C(=O)O; NH(CH2)5NH2 = NCCCCCN*; ξV = CC(C)C(N)C(=O)O

molecular target: T1, PE-labeled human PD-L1-Ig binding to Jurkat cell line over-expressing human PD-1 (Jurkat-PD-1) (Homo sapiens, UniProt Q15116); experiment: Jurkat-PD-1 Cell Binding High-Content Screening Assay (CBA): Method 1; conditions: Jurkat-PD-1 cells, PE-labeled PD-L1-Ig; μM; read-out: CBA Method 1 μM
T1 construct: expressed in transfected cells; host or cells: Jurkat
T1 sequence (Q15116 25-288): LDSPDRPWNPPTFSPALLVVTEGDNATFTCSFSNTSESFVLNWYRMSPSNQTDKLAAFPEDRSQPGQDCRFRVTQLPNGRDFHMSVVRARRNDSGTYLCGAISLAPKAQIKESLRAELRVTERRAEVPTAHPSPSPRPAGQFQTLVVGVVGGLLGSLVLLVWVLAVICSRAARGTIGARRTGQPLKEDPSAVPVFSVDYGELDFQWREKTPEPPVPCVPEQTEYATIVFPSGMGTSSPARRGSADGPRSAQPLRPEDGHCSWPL

IC50	Compound
0.131 µM	Cc1cccc(C[C@@H]2NC(=O)[C@H](CC(=O)O)NC(=O)[C@H](Cc3ccc(OCC(=O)O)cc3)NC(=O)[C@H](CN3CCOCC3)NC(=O)CSC[C@@H](C(=O)N[C@@H](CCN)C(N)=O)NC(=O)[C@H](CCCN)NC(=O)[C@H](C(C)C)NC(=O)[C@H](Cc3ccc4ccccc4c3)NC(=O)[C@H](CCN)NC(=O)[C@@H](CC(C)C)NC(=O)[C@H](C)N(C)C(=O)[C@H](CCC(N)=O)NC(=O)[C@H](Cc3ccc(-c4ccccc4)cc3)NC(=O)[C@H](Cc3ccc(C(=O)O)cc3)NC2=O)c1 [Example 5044] ({CH2CO}-[Ala(morpholin-4-yl)]Y(Carboxymethyl)D[Phe(3-Me)][Phe(4-COOH)][Bip]Q[NMeA][dL][Dab][2Nal]V[Orn]C[Dab]-NH2; thioether N-14)

same assay, conditions: Jurkat-hPD-1 cells, PE-labeled PD-L1-Ig 20 nM final; read-out: Jurkat HPDL1 PD1 IC50 (uM) (Method 1)

Compound	IC50
CC(C)C[C@@H]1NC(=O)[C@H](CCN)NC(=O)[C@@H](CC(C)C)NC(=O)[C@H](C)N(C)C(=O)[C@H](CCCNC(=N)N)NC(=O)[C@H](Cc2ccc(-c3ccccc3)cc2)NC(=O)[C@H](C(C)C)NC(=O)[C@H](Cc2c[nH]c3ccccc23)NC(=O)[C@H](CC(=O)O)NC(=O)[C@H](Cc2ccc(O)cc2)NC(=O)[C@H](CC(N)=O)NC(=O)CSC[C@@H](C(=O)N[C@H](C)C(N)=O)NC(=O)[C@H]([C@@H](C)O)NC(=O)[C@H](C(C)C)NC1=O [Compound 1183] ({CH2CO}-NYDWV[Bip]R[NMeA][dL][Dab]LVTC[dA]-NH2; thioether N-14)	0.15 µM
Cc1cccc(C[C@@H]2NC(=O)[C@H](CC(=O)O)NC(=O)[C@H](Cc3ccc(C(=O)O)cc3)NC(=O)[C@H](Cc3ccc(OCC(=O)O)cc3)NC(=O)CSC[C@@H](C(N)=O)NC(=O)[C@H](CO)NC(=O)[C@H](C(C)C)NC(=O)[C@H](CC(C)C)NC(=O)[C@H](CC(N)=O)NC(=O)[C@@H](CC(C)C)NC(=O)[C@H](C)N(C)C(=O)[C@H](CCCNC(N)=O)NC(=O)[C@H](Cc3ccc(-c4ccccc4)cc3)NC(=O)[C@H](CC(C)C)NC2=O)c1 [Compound 1643] ({CH2CO}-Y(Carboxymethyl)[Phe(4-COOH)]D[Phe(3-Me)]L[Bip][Cit][NMeA][dL]NLVSC-NH2; thioether N-14)	0.08 µM
CC(C)C[C@@H]1NC(=O)[C@H](CCN)NC(=O)[C@@H](CC(C)C)NC(=O)[C@H](C)N(C)C(=O)[C@H](CCC(N)=O)NC(=O)[C@H](Cc2ccc(-c3ccccc3)cc2)NC(=O)[C@H](C(C)C)NC(=O)[C@H](Cc2c[nH]c3ccccc23)NC(=O)[C@H](CC(=O)O)NC(=O)[C@H](Cc2ccc(O)cc2)NC(=O)[C@H](CC(N)=O)NC(=O)CSC[C@@H](C(=O)N[C@@H](C)C(N)=O)NC(=O)[C@H]([C@@H](C)O)NC(=O)[C@H](C(C)C)NC1=O [Compound 1301] ({CH2CO}-NYDWV[Bip]Q[NMeA][dL][Dab]LVTCA-NH2; thioether N-14)	0.06 µM
CC(C)C[C@@H]1NC(=O)[C@H](CCN)NC(=O)[C@@H](CC(C)C)NC(=O)[C@H](C)N(C)C(=O)[C@H](CCCNC(N)=O)NC(=O)[C@H](Cc2ccc(-c3ccccc3)cc2)NC(=O)[C@H](C(C)C)NC(=O)[C@H](Cc2c[nH]c3ccccc23)NC(=O)[C@H](CC(=O)O)NC(=O)[C@H](Cc2cccc(Cl)c2)NC(=O)[C@H](CC(N)=O)NC(=O)CSC[C@@H](C(=O)N[C@@H](C)C(N)=O)NC(=O)[C@H]([C@@H](C)O)NC(=O)[C@H](C(C)C)NC1=O [Compound 1310] ({CH2CO}-N[Phe(3-Cl)]DWV[Bip][Cit][NMeA][dL][Dab]LVTCA-NH2; thioether N-14)	0.11 µM
Cc1cccc(C[C@@H]2NC(=O)[C@H](CC(=O)O)NC(=O)[C@H](Cc3ccc(O)cc3)NC(=O)[C@H](CC(N)=O)NC(=O)CSC[C@@H](C(=O)N[C@@H](CCN)C(N)=O)NC(=O)[C@H](CCC(=O)O)NC(=O)[C@H](C(C)(C)O)NC(=O)[C@H](CC3CCCCC3)NC(=O)[C@H](CCN)NC(=O)[C@@H](CC(C)C)NC(=O)[C@H](C)N(C)C(=O)[C@H](CCCNC(N)=O)NC(=O)[C@H](Cc3ccc(-c4ccccc4)cc3)NC(=O)[C@H](C(C)(C)O)NC2=O)c1 [Compound 1711] ({CH2CO}-NYD[Phe(3-Me)][Val(3-OH)][Bip][Cit][NMeA][dL][Dab][Cha][Val(3-OH)]EC[Dab]-NH2; thioether N-14)	0.06 µM
CC(C)C[C@@H]1NC(=O)[C@H](CCN)NC(=O)[C@@H](CC(C)C)NC(=O)[C@H](C)N(C)C(=O)[C@H](CCCNC(=N)N)NC(=O)[C@H](Cc2ccc(-c3ccccc3)cc2)NC(=O)[C@H](C(C)C)NC(=O)[C@H](Cc2c[nH]c3ccccc23)NC(=O)[C@H](CC(=O)O)NC(=O)[C@H](Cc2ccc(OCC(=O)O)cc2)NC(=O)[C@H](CC(N)=O)NC(=O)CSC[C@@H](C(=O)N[C@@H](C)C(N)=O)NC(=O)[C@H]([C@@H](C)O)NC(=O)[C@H](C(C)C)NC1=O [Compound 1138] ({CH2CO}-NY(Carboxymethyl)DWV[Bip]R[NMeA][dL][Dab]LVTCA-NH2; thioether N-14)	0.07 µM

Next, values leading:

IC50	Compound
0.01 µM	CC(=O)NCCCC[C@@H]1NC(=O)[C@H](C(C)C)NC(=O)[C@H](CC2CCCCC2)NC(=O)[C@H](CCN)NC(=O)[C@@H](CC(C)C)NC(=O)[C@H](C)N(C)C(=O)[C@H](CCC(N)=O)NC(=O)[C@H](Cc2ccc(-c3ccccc3)cc2)NC(=O)[C@H](C(C)C)NC(=O)[C@H](Cc2cccc(C)c2)NC(=O)[C@H](CC(=O)O)NC(=O)[C@H](Cc2ccc(OCC(=O)O)cc2)NC(=O)[C@H](Cc2ccc(OCC(=O)O)cc2)NC(=O)CSC[C@@H](C(=O)N[C@H](CCCN)C(N)=O)NC1=O [Compound 2155] ({CH2CO}-Y(Carboxymethyl)Y(Carboxymethyl)D[Phe(3-Me)]V[Bip]Q[NMeA][dL][Dab][Cha]VK(Ac)C[dOrn]-NH2; thioether N-14)
0.02 µM	C#CC[C@H](NC(=O)[C@@H](C)NC(=O)[C@@H]1CSCC(=O)N[C@@H](Cc2ccc(OCC(=O)O)cc2)C(=O)N[C@@H](Cc2ccc(C(=O)O)cc2)C(=O)N[C@@H](CC(=O)O)C(=O)N[C@@H](Cc2c[nH]c3ccccc23)C(=O)N[C@@H](CC(C)C)C(=O)N[C@@H](Cc2ccc(-c3ccccc3)cc2)C(=O)N[C@@H](C(C)C)C(=O)N(C)[C@@H](C)C(=O)N[C@H](CC(C)C)C(=O)N[C@@H](CCN)C(=O)N[C@@H](CC2CCCCC2)C(=O)N[C@@H](C(C)(C)O)C(=O)N[C@@H](CO)C(=O)N1)C(N)=O [Compound 1940] ({CH2CO}-Y(Carboxymethyl)[Phe(4-COOH)]DWL[Bip]V[NMeA][dL][Dab][Cha][Val(3-OH)]SC[dA][Pra]-NH2; thioether N-14)
0.01 µM	C#CC[C@H](NC(=O)CNC(=O)[C@@H]1CSCC(=O)N[C@@H](Cc2ccc(OCC(=O)O)cc2)C(=O)N[C@@H](Cc2ccc(C(=O)O)cc2)C(=O)N[C@@H](CC(=O)O)C(=O)N[C@@H](Cc2c[nH]c3ccccc23)C(=O)N[C@@H](CC(C)C)C(=O)N[C@@H](Cc2ccc(-c3ccccc3)cc2)C(=O)N[C@@H](C(C)C)C(=O)N(C)[C@@H](C)C(=O)N[C@H](CC(C)C)C(=O)N[C@@H](CCN)C(=O)N[C@@H](CC2CCCCC2)C(=O)N[C@@H](C(C)C)C(=O)N[C@@H](CO)C(=O)N1)C(=O)O [Compound 1934] ({CH2CO}-Y(Carboxymethyl)[Phe(4-COOH)]DWL[Bip]V[NMeA][dL][Dab][Cha]VSCG[Pra]-OH; thioether N-14)
0.11 µM	Cc1cccc(-c2ccc(C[C@@H]3NC(=O)[C@H](CC(C)C)NC(=O)[C@H](Cc4c[nH]c5ccccc45)NC(=O)[C@H](CC(=O)O)NC(=O)[C@H](Cc4ccc(O)cc4)NC(=O)[C@H](Cc4ccccc4)NC(=O)CSC[C@@H](C(=O)N[C@@H](C)C(N)=O)NC(=O)[C@H](CO)NC(=O)[C@H](C(C)C)NC(=O)[C@H](CC(C)C)NC(=O)[C@H](CC(N)=O)NC(=O)[C@@H](C)NC(=O)[C@H](C)N(C)C(=O)[C@H](C(C)C)NC3=O)cc2)c1 [Compound 1788] ({CH2CO}-FYDWL[X19]V[NMeA][dA]NLVSCA-NH2; thioether N-14)
0.19 µM	CCC(C)[C@@H]1NC(=O)[C@H](Cc2ccc(-c3ccccc3)cc2)NC(=O)[C@H](C(C)C)NC(=O)[C@H](Cc2c[nH]c3ccccc23)NC(=O)[C@H](CC(=O)O)NC(=O)[C@H](Cc2ccc(O)cc2)NC(=O)[C@H](Cc2ccco2)NC(=O)CSC[C@@H](C(=O)NC(C(N)=O)C2CCOCC2)NC(=O)[C@H](C(C)O)NC(=O)[C@H](C(C)(C)O)NC(=O)[C@H](CC2CCCCC2)NC(=O)[C@H](CC(N)=O)NC(=O)[C@@H](CC(C)C)NC(=O)[C@H](C)N(C)C1=O (stereo partly drawn) [Compound 2176] ({CH2CO}-[Ala(2-furyl)]YDWV[Bip][Ile(3ξ)][NMeA][dL]N[Cha][Val(3-OH)][Thr(3ξ)]C[X49]-NH2; thioether N-14)
0.02 µM	CCC(C)[C@@H]1NC(=O)[C@H](Cc2ccc(-c3ccccc3)cc2)NC(=O)[C@H](C(C)C)NC(=O)[C@H](Cc2cccc(C)c2)NC(=O)[C@H](CC(=O)O)NC(=O)[C@H](Cc2ccc(OCC(=O)O)cc2)NC(=O)[C@H](Cc2ccncc2)NC(=O)CSC[C@@H](C(=O)N[C@@H](CO)C(=O)O)NC(=O)[C@H](CO)NC(=O)[C@H](C(C)C)NC(=O)[C@H](CC2CCCCC2)NC(=O)[C@H](CCN)NC(=O)[C@@H](CC(C)C)NC(=O)[C@H](C)N(C)C1=O (stereo partly drawn) [Compound 2234] ({CH2CO}-[4Pal]Y(Carboxymethyl)D[Phe(3-Me)]V[Bip][Ile(3ξ)][NMeA][dL][Dab][Cha]VSCS-OH; thioether N-14)
0.04 µM	CC(C)C[C@H]1NC(=O)[C@H](C)N(C)C(=O)[C@H](C(C)C)NC(=O)[C@H](Cc2ccc(-c3ccccc3)cc2)NC(=O)[C@H](C(C)C)NC(=O)[C@H](Cc2c[nH]c3ccccc23)NC(=O)[C@H](CC(N)=O)NC(=O)[C@H](Cc2ccc(OCC(=O)O)cc2)NC(=O)[C@H](Cc2ccccc2)NC(=O)CSC[C@@H](C(=O)N[C@@H](C)C(=O)NCCCCCN)NC(=O)[C@H](CO)NC(=O)C(C(C)C)NC(=O)[C@H](CC2CCCCC2)NC(=O)[C@H](CC(N)=O)NC1=O (stereo partly drawn) [Compound 2240] ({CH2CO}-FY(Carboxymethyl)NWV[Bip]V[NMeA][dL]N[Cha][ξV]SCA-{NH(CH2)5NH2}; thioether N-14)
